A short description of data set [1]: HPLC-MS quantification of N-nitroso-varenicline impurity (II) in tablets, after manufacture and after storage/stress. The settings on record: starting material before tablet manufacture. The data set is classed as physicochemical. The method, then:
The N-nitroso-varenicline-impurity (II) level in the solid pharmaceutical formulation of the present invention may be detected by high performance liquid chromatography (HPLC) method disclosed in the present invention.
HPLC Method Used for Analyzing N-Nitroso-Varenicline Impurity (II)
The chromatographic separation was carried out using an Acquity UPLC HSS PFP, 2.1×100 mm, 1.8 μm at 35±2° C.
Mobile phase A: 0.05% (v/v) formic acid solution in water.
Mobile phase A is prepared as follows: Dilute with water, 0.5 mL of formic acid in a 1000 mL volumetric flask.
Mobile phase B: Acetonitrile LC-MS grade.
The chromatograph was programmed as follows: initial 2 min isocratic 90% mobile phase A; 2-11 min linear gradient to 50% mobile phase A; 11-16 min isocratic 50% mobile phase A; 16-18 min linear gradient to 90% mobile phase A; 18-23 min isocratic 90% mobile phase A.
The chromatograph was equipped with equipped with a mass detector. The acquisition was made in Single Ion Monitoring. The ion with m/z 241.0 was monitored at 0.8 points/s. The ionization mode was positive electrospray (ESI+), the source temperature was set at 130° C., desolvation gas flow was at 500 L/h and the capillary voltage was set at 3 kV. The cone voltage was set at 20 V for the ion with m/z 241.0. […]
The quantification (μg/g or ppm) of N-nitroso-varenicline impurity (II) in test specimen was performed as follows: […]

For data set [2] the following is noted: based on lifetime exposure; cited from earlier work.

Where a name gives a salt, the structure may show the parent alone.

With `c1cnc2cc3c(cc2n1)C1CNCC3C1` [varenicline tartrate, 7,8,9,10-tetrahydro-6,10-methano-6H-pyrazino[2,3-h][3]benzazepine], the “N-nitroso-varenicline impurity (II) content of the varenicline tartrate used as starting material” value in data set [1] is listed as “less than 0.4 ppm”.

For `O=NN1CC2CC(C1)c1cc3nccnc3cc12` [N-nitroso-varenicline impurity (II)], the “intake considered reasonably safe for humans (FDA)” value in data set [2] is given as “up to 37 ng/day”.

Source of the values: patent US20250134904A1, “SOLID PHARMACEUTICAL FORMULATIONS OF VARENICLINE” (MEDICHEM, S.A., priority 2021, published 2025).
